Assay results: patent publication US20230028403A1, “METHOD WHICH BRINGS BENEFITS TO HEALTH AND/OR GROWTH OF USEFUL PLANTS” (ISHIHARA SANGYO KAISHA, LTD., priority 2019, published 2023)

Key:
Assay type in all cases: in vivo
[1] = tested on: field corn (variety: PIONEERDENT 30N34); experiment: Test Example 4: above-ground height of field corn, pot, 300 L/ha; conditions: dose 120 g/ha; (c) polyoxyethylene hydrogenated castor oil 0.08 w/v %; 14th day
Protocol: Upland field soil was put into a […] hectare pot, and seeds of field corn (variety: PIONEERDENT 30N34, variety highly susceptible to component (a)) were sown. When the field corn reached 3.5 to 4.0 leaf stage, an oil-based suspension containing the component (a) and the component (c) (polyoxyethylene hydrogenated castor oil), and a wettable powder containing the component (b) were diluted with water in an amount corresponding to 300 L/ha to prepare spray solutions. The concentration of the component (c) in the spray solution was 0.08 weight/volume percent. The spray solutions were applied to foliage with a small sprayer. On the 14th day after the foliar application, the above-ground height of the field corn was measured, and the height ratio was calculated in accordance with the following formula. The above-ground height in the untreated plot was 75.8 cm.
(§1) Height ratio (%)=(above-ground height in the treated plot)/(above-ground height in the untreated plot)×100

[2] = tested on: field corn (variety: PIONEERDENT 30N34); experiment: Test Example 5: above-ground height of field corn, agricultural field, 300 L/ha; conditions: dose 30 g/ha; (c) polyoxyethylene hydrogenated castor oil 0.020 w/v %; 14th day
Protocol: In an agricultural field having seeds of field corn (variety: PIONEERDENT 30N34, variety highly susceptible to component (a)) sown, when the field corn reached 3.1 to 3.5 leaf stage, an oil-based suspension containing the component (a) and the component (c) (polyoxyethylene hydrogenated castor oil), and a wettable powder containing the component (b) were diluted with water in an amount corresponding to 300 L/ha to prepare spray solutions, which were applied to foliage with a Teejet 80015VS nozzle. The concentration of the component (c) in the spray solution was 0.020 weight/volume percent. On the 14th day after the foliar application, the above-ground height of the field corn was measured, and the height ratio was calculated in accordance with the following formula. The above-ground height in the untreated plot was 76.7 cm.
Height ratio (%) =(above-ground height in the treated plot)/(above-ground height in the untreated plot)×100

[3] = tested on: field corn (variety: SNOWDENT SH2933); experiment: Test Example 6: above-ground height of field corn, pot, 300 L/ha; conditions: dose 30 g/ha; (c) sodium polyoxyethylene alkyl ether phosphate 0.033 w/v %; 14th day
Protocol: On the 14th day after the foliar application, the above-ground height of the field corn was measured, and the height ratio was calculated in accordance with the following formula.
Height ratio (%)=(above-ground height in the treated plot)/(above-ground height in the untreated plot) ×100

[4] = tested on: field corn (variety: SNOWDENT SH2933); experiment: Test Example 7: above-ground height of field corn, agricultural field, 200 L/ha; conditions: 27th day
Protocol: On the 27th day after the foliar application, the above-ground height of the field corn was measured, and the height ratio was calculated in accordance with the following formula.
as §1

[5] = tested on: field corn (variety: SNOWDENT SH2933); experiment: Test Example 8: above-ground height of field corn, agricultural field, 500 L/ha; conditions: 28th day
Protocol: On the 28th day after the foliar application , the above-ground height of the field corn was measured, and the height ratio was calculated in accordance with the following formula.
as §1

[6] = dose 20 g/ha, (c) polyoxyethylene hydrogenated castor oil 0.02 w/v %
[7] = dose 30 g/ha, (c) polyoxyethylene hydrogenated castor oil 0.03 w/v %
[8] = dose 40 g/ha, (c) polyoxyethylene hydrogenated castor oil 0.04 w/v %
[9] = dose 60 g/ha, (c) polyoxyethylene hydrogenated castor oil 0.06 w/v %
[10] = dose 80 g/ha, (c) polyoxyethylene hydrogenated castor oil 0.08 w/v %
[11] = dose 120 g/ha, (c) polyoxyethylene hydrogenated castor oil 0.12 w/v %
[12] = dose 60 g/ha, (c) sodium polyoxyethylene alkyl ether phosphate 0.04 w/v %
[13] = dose 90 g/ha, (c) sodium polyoxyethylene alkyl ether phosphate 0.06 w/v %
[14] = dose 120 g/ha, (c) sodium polyoxyethylene alkyl ether phosphate 0.08 w/v %

Which results are given for COc1cc(OC)nc(NC(=O)NS(=O)(=O)c2ncccc2C(=O)N(C)C)n1 [Component (a), nicosulfuron]?
Above-ground height [1]: 41.3 cm; Height ratio [1]: 55%; Above-ground height [2]: 66.6 cm; Height ratio [2]: 87%; Above-ground height [3]: 46.8 cm; Height ratio [3]: 75%; Above-ground height [4, 6]: 125.5 cm; Height ratio [4, 6]: 86%; Above-ground height [4, 7]: 124.0 cm; Height ratio [4, 7]: 84%; Above-ground height [4, 8]: 129.9 cm; Height ratio [4, 8]: 88%; Above-ground height [4, 9]: 122.3 cm; Height ratio [4, 9]: 83%; Above-ground height [4, 10]: 110.7 cm; Height ratio [4, 10]: 75%; Above-ground height [4, 11]: 107.4 cm; Height ratio [4, 11]: 73%; Above-ground height [5, 12]: 107.2 cm; Height ratio [5, 12]: 81%; Above-ground height [5, 13]: 88.6 cm; Height ratio [5, 13]: 67%; Above-ground height [5, 14]: 86.3 cm; Height ratio [5, 14]: 65%
